Measured values reported in the OPERA property sets (Mansouri et al. 2018).
In brackets after ≈: the same amount, converted by molar mass.

Conditions: not given

| SMILES | solubility [mM] |
| --- | --- |
| O=C(Nc1ccccc1)Nc1ccccc1 | 0.707 (≈ 0.15 mg/mL) |
| O=C1c2ccccc2C(=O)c2c1ccc(O)c2O | 1.67 (≈ 0.4 mg/mL) |
| COc1cc(NS(=O)(=O)c2ccc(N)cc2)nc(C)n1 | 2.86 (≈ 0.843 mg/mL) |
| CCOc1ccc(C(=O)OCCN(CC)CC)cc1 | 1.93 (≈ 0.512 mg/mL) |
| N[C@@H](C(=O)N[C@@H]1C(=O)N2C(C(=O)O)=C(Cl)CS[C@H]12)c1ccccc1 | 27.2 (≈ 10 mg/mL) |

Same assay, conditions: 20 °C

| SMILES | solubility [mM] |
| --- | --- |
| Oc1nc(O)c2nccnc2n1 | 7.62 (≈ 1.25 mg/mL) |
| CCc1ccc(CC)cc1 | 0.185 (≈ 0.0248 mg/mL) |
| CCOP(=S)(NC(C)C)Oc1ccccc1C(=O)OC(C)C (centres undefined) | 0.064 (≈ 0.0221 mg/mL) |
| Cc1nnc(-c2ccccc2)c(=O)n1N | 8.9 (≈ 1.8 mg/mL) |
| COc1ccc(Oc2ccc(NC(=O)N(C)C)cc2)cc1 | 0.0699 (≈ 0.02 mg/mL) |
| Oc1ccc(/N=N/c2ccccc2)cc1 | 0.454 (≈ 0.09 mg/mL) |
| CCCCCCCC(=O)OC | 0.407 (≈ 0.0644 mg/mL) |
| CCCCOCCOC(C)=O | 56.2 (≈ 9 mg/mL) |
| CC(Cl)[N+](=O)[O-] (centres undefined) | 36.5 (≈ 4 mg/mL) |
| C[C@H](O)C(=O)Nc1c(I)c(C(=O)NC(CO)CO)c(I)c(C(=O)NC(CO)CO)c1I | 180 (≈ 140 mg/mL) |
| CCC(C)OC(C)=O (centres undefined) | 53.4 (≈ 6.2 mg/mL) |
| CCC(C)N (centres undefined) | 1530 (≈ 112 mg/mL) |
| Clc1cccc(-c2ccccc2Cl)c1 | 0.0026 (≈ 0.00058 mg/mL) |
| Oc1cccnc1 | 350 (≈ 33.3 mg/mL) |

Same assay, conditions: 22 °C

| SMILES | solubility [mM] |
| --- | --- |
| CN(C)C(=O)N(C(=O)c1ccccc1)c1ccc(Cl)c(Cl)c1 | 0.0474 (≈ 0.016 mg/mL) |
| CC(=O)c1ccc(O)cc1 | 72.7 (≈ 9.9 mg/mL) |
| CC(Oc1ccccc1Cl)C(=O)O (centres undefined) | 5.98 (≈ 1.2 mg/mL) |

Same assay, conditions: 23 °C

| SMILES | solubility [mM] |
| --- | --- |
| C[C@]12CC[C@@H](O)C[C@@H]1CC[C@@H]1[C@@H]2[C@H](O)C[C@]2(C)C(=O)CC[C@@H]12 | 0.255 (≈ 0.0782 mg/mL) |

Same assay, conditions: 24 °C

| SMILES | solubility [mM] |
| --- | --- |
| CC(C)COC(=O)c1ccccc1C(=O)OCC(C)C | 0.0223 (≈ 0.0062 mg/mL) |
| CCN(CC)N=O | 1040 (≈ 106 mg/mL) |
| CC(CN1c2ccccc2Sc2ccccc21)N(C)C (centres undefined) | 0.055 (≈ 0.0156 mg/mL) |
| CN(C)CCCN1c2ccccc2Sc2ccccc21 | 0.0499 (≈ 0.0142 mg/mL) |

Same assay, conditions: 25 °C

| SMILES | solubility [mM] |
| --- | --- |
| C[C@]12CC[C@H](O)CC1=CC[C@@H]1[C@@H]2CC[C@]2(C)C(=O)CC[C@@H]12 | 0.129 (≈ 0.0372 mg/mL) |
| C=C(c1ccccc1)c1ccccc1 | 0.0366 (≈ 0.0066 mg/mL) |
| O=C(O)COc1ccccc1Cl | 6.86 (≈ 1.28 mg/mL) |
| Cc1cnc2c(ccc3c(C)c(C)cnc32)c1C | 0.00639 (≈ 0.00151 mg/mL) |
| Cc1cccc2c(C)cccc12 | 0.0175 (≈ 0.00274 mg/mL) |
| Cc1ccc(C)nc1 | 1530 (≈ 164 mg/mL) |
| O=C(O)c1ccccc1[N+](=O)[O-] | 47 (≈ 7.85 mg/mL) |
| S=C=Nc1cccc(Br)c1 | 0.0822 (≈ 0.0176 mg/mL) |
| Clc1cccc(-c2ccccc2)c1 | 0.0192 (≈ 0.00363 mg/mL) |
| ClCCCCl | 24.3 (≈ 2.75 mg/mL) |
| Cc1ccc2ccc(C)nc2c1 | 11.4 (≈ 1.79 mg/mL) |
| CCCCC1(CC)C(=O)NC(=O)NC1=O | 23 (≈ 4.88 mg/mL) |
| O=C(O)c1ccccc1 | 24.8 (≈ 3.03 mg/mL) |
| CCC(CC)CO | 39.1 (≈ 4 mg/mL) |
| O=C(O)c1ccc(F)cc1 | 8.56 (≈ 1.2 mg/mL) |
| COc1ccc(C=O)cc1 | 31.5 (≈ 4.29 mg/mL) |
| CC(C(=O)O)C(=O)O | 5750 (≈ 679 mg/mL) |
| CCCCCCCBr | 0.0371 (≈ 0.00664 mg/mL) |

| SMILES | solubility [mM] |
| --- | --- |
| CCCCCCCI | 0.0155 (≈ 0.0035 mg/mL) |
| CC(C)(C)CO | 397 (≈ 35 mg/mL) |
| Cc1c(C(=O)O)c(O)cc2c1C(=O)c1c(O)c([C@@H]3O[C@H](CO)[C@@H](O)[C@H](O)[C@H]3O)c(O)c(O)c1C2=O | 2.64 (≈ 1.3 mg/mL) |
| Cc1cccc2c1ccc1ccccc12 | 0.0014 (≈ 0.000269 mg/mL) |
| CCC(C(=O)O)C(=O)O | 5390 (≈ 712 mg/mL) |
| Cc1ccc(C)c(O)c1 | 29 (≈ 3.54 mg/mL) |
| CC1(C)[C@H](C(=O)O)CC[C@]1(C)C(=O)O | 38 (≈ 7.6 mg/mL) |
| CCCCCCCC=O | 4.37 (≈ 0.56 mg/mL) |
| O=C(O)C(=O)Nc1ccccc1 | 49.9 (≈ 8.24 mg/mL) |
| Cc1c[nH]c(=S)[nH]c1=O | 3.58 (≈ 0.509 mg/mL) |
| CCCC(=O)OC | 147 (≈ 15 mg/mL) |
| CCCC(C)CC (centres undefined) | 0.0494 (≈ 0.00495 mg/mL) |
| N[C@@H](Cc1cnc[nH]1)C(=O)O | 294 (≈ 45.6 mg/mL) |
| CC/C(=C(/CC)c1ccc(O)cc1)c1ccc(O)cc1 | 0.0447 (≈ 0.012 mg/mL) |
| CC(C)CC(C)C | 0.0549 (≈ 0.0055 mg/mL) |
| O=C(O)C(c1ccccc1)c1ccccc1 | 0.598 (≈ 0.127 mg/mL) |
| O=C(O)c1cc(O)c(O)c(OC(=O)c2cc(O)c(O)c(O)c2)c1 | 1.55 (≈ 0.5 mg/mL) |

Same assay, conditions: 28 °C

| SMILES | solubility [mM] |
| --- | --- |
| O=C(O)CCCC(=O)O | 12100 (≈ 1600 mg/mL) |

Same assay, conditions: 30 °C

| SMILES | solubility [mM] |
| --- | --- |
| COc1cnc(NS(=O)(=O)c2ccc(N)cc2)nc1 | 2.6 (≈ 0.73 mg/mL) |
